Assay results published in ChEMBL document CHEMBL1201862, “PubChem BioAssay data set” (2004).
“And” between values parts separate entries of the source, which are not always exact repeats. Equal values may be shown once.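 Briefly, cells in 96-well plates were exposed to five compound concentrations for 48 h, and endpoints were estimated by linear interpolation. GI50 marks 50% less growth.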 The source made the active and inactive calls. Rule as the data show it: active = GI50 up to about 1.1 µM and inactive = higher.

How the values were obtained:
Assay in all cases: NCI tumour cell line growth inhibition, 48 h
A498 = test system: A498
BT-549 = test system: BT-549
CAKI-1 = test system: CAKI-1
DU-145 = test system: DU-145
HCC 2998 = test system: HCC 2998
HOP-92 = test system: HOP-92
Hs-578T = test system: Hs-578T
Malme-3M = test system: Malme-3M
NCI-H226 = test system: NCI-H226
NCI-H460 = test system: NCI-H460
NCI/ADR-RES = test system: NCI/ADR-RES
OVCAR-3 = test system: OVCAR-3
OVCAR-4 = test system: OVCAR-4
SF-268 = test system: SF-268
SF-539 = test system: SF-539
SNB-75 = test system: SNB-75
TK-10 = test system: TK-10
UO-31 = test system: UO-31
CCRF-CEM = test system: CCRF-CEM
SR = test system: SR

Compound | GI50 (A498) | GI50 (BT-549) | GI50 (CAKI-1) | GI50 (DU-145) | GI50 (HCC 2998) | GI50 (HOP-92) | GI50 (Hs-578T) | GI50 (Malme-3M) | GI50 (NCI-H226) | GI50 (NCI-H460) | GI50 (NCI/ADR-RES) | GI50 (OVCAR-3) | GI50 (OVCAR-4) | GI50 (SF-268) | GI50 (SF-539) | GI50 (SNB-75) | GI50 (TK-10) | GI50 (UO-31) | GI50 (CCRF-CEM) | GI50 (SR)
O=c1c2ccccc2c2ccccc2c(=O)n1-c1cc2c3ccccc3ccc2c2ccccc12 | > 100 µM (inactive) | > 100 µM (inactive) | > 100 µM (inactive) | > 100 µM (inactive) | 22.3 µM (inactive) | > 100 µM (inactive) | > 100 µM (inactive) | > 100 µM (inactive) | > 100 µM (inactive) | > 100 µM (inactive) | > 100 µM (inactive) | > 100 µM (inactive) | > 100 µM (inactive) | > 100 µM (inactive) | > 100 µM (inactive) | > 100 µM (inactive) | > 100 µM (inactive) | > 100 µM (inactive) |  | 
CC1(C)C(=O)C2(C#N)CCC1C2 (configuration not stated) | > 100 µM (inactive) | > 100 µM (inactive) | > 100 µM (inactive) | > 100 µM (inactive) | > 100 µM (inactive) | > 100 µM (inactive) | > 100 µM (inactive) | > 100 µM (inactive) | > 100 µM (inactive) | > 100 µM (inactive) | > 100 µM (inactive) | > 100 µM (inactive) | > 100 µM (inactive) | > 100 µM (inactive) | > 100 µM (inactive) | > 84.7 µM (inactive) | > 100 µM (inactive) | > 100 µM (inactive) | > 100 µM (inactive) | 
Cc1ccc2c(c1)nc(N)n[n+]2[O-] | > 100 µM (inactive) | > 100 µM (inactive) | > 100 µM (inactive) | > 100 µM (inactive) |  |  | > 100 µM (inactive) |  | > 100 µM (inactive) | > 100 µM (inactive) | > 100 µM (inactive) | > 100 µM (inactive) | > 100 µM (inactive) | > 100 µM (inactive) | > 100 µM (inactive) | 85.9 µM (inactive) | > 100 µM (inactive) | > 100 µM (inactive) | > 100 µM (inactive) | > 100 µM (inactive)
COCC1OC(Sc2ccccc2)C(O)C(OC)C1OC (configuration not stated) |  | > 100 µM (inactive) | > 100 µM (inactive) | > 100 µM (inactive) | > 100 µM (inactive) |  | > 100 µM (inactive) | > 100 µM (inactive) | > 100 µM (inactive) | > 100 µM (inactive) | > 100 µM (inactive) | > 100 µM (inactive) | > 100 µM (inactive) | > 100 µM (inactive) | > 100 µM (inactive) |  | > 100 µM (inactive) | > 100 µM (inactive) | > 100 µM (inactive) and 52.4 µM (inactive) | > 100 µM (inactive)
CN(C)CCNc1nc(-c2ccc3ccccc3c2)nc2[nH]cnc12 |  | 11.2 µM (inactive) | 4.89 µM (inactive) | 10.6 µM (inactive) | 1.99 µM (inactive) |  | 5.18 µM (inactive) | 4.51 µM (inactive) | 2.59 µM (inactive) | 3.66 µM (inactive) | 7.33 µM (inactive) | 7.64 µM (inactive) | 10.7 µM (inactive) | 8.22 µM (inactive) |  | 1.1 µM (active) | 6.38 µM (inactive) | 3.03 µM (inactive) | 9.27 µM (inactive) | 2.88 µM (inactive)
COC(O)C(=O)c1c2c(cc3c1CCC3)CCC2 (configuration not stated) | > 100 µM (inactive) | > 100 µM (inactive) | > 100 µM (inactive) | > 100 µM (inactive) | > 100 µM (inactive) |  | > 100 µM (inactive) | > 100 µM (inactive) | > 100 µM (inactive) | > 100 µM (inactive) | > 100 µM (inactive) | > 100 µM (inactive) | > 100 µM (inactive) | > 100 µM (inactive) | > 100 µM (inactive) | > 100 µM (inactive) | > 100 µM (inactive) | > 100 µM (inactive) | 55 µM (inactive) | 66.2 µM (inactive)
O=S(=O)(c1cc(Cl)ccc1Cl)N1CCN(S(=O)(=O)c2cc(Cl)ccc2Cl)CC1 | > 100 µM (inactive) | > 100 µM (inactive) | > 100 µM (inactive) | 16.1 µM (inactive) | > 100 µM (inactive) | > 100 µM (inactive) | 19.8 µM (inactive) | > 100 µM (inactive) | > 100 µM (inactive) | > 100 µM (inactive) | > 100 µM (inactive) | > 100 µM (inactive) |  | > 100 µM (inactive) | > 100 µM (inactive) | > 100 µM (inactive) | > 100 µM (inactive) | > 100 µM (inactive) |  | 
O=C(Oc1c(I)ccccc1=O)c1ccc([N+](=O)[O-])cc1 | 0.409 µM (active) | 18.6 µM (inactive) | 24.4 µM (inactive) | 11.7 µM (inactive) | 23.2 µM (inactive) |  | 24.8 µM (inactive) | 14.6 µM (inactive) |  | 11.4 µM (inactive) | 40.6 µM (inactive) | 13.6 µM (inactive) |  | 15.5 µM (inactive) | 17.9 µM (inactive) |  | 30.8 µM (inactive) | 17.3 µM (inactive) | 22.5 µM (inactive) | 4.34 µM (inactive)
CCN(CC)Cc1cc(Nc2ccnc3ccc4c(nnn4C)c23)ccc1O |  | 18.8 µM (inactive) | 13.5 µM (inactive) | 13.3 µM (inactive) | 1.75 µM (inactive) |  | 15.5 µM (inactive) | 13 µM (inactive) |  | 3.42 µM (inactive) | 19 µM (inactive) | 19.3 µM (inactive) | 7.6 µM (inactive) | 10.2 µM (inactive) | 5.33 µM (inactive) | 5.89 µM (inactive) | 21.5 µM (inactive) | 6.62 µM (inactive) | 5.06 µM (inactive) | 4.13 µM (inactive)
COc1ccc2c(C(=O)c3c(C)n(CCN4CCOCC4)c4ccccc34)cccc2c1 | 81.8 µM (inactive) | 20.2 µM (inactive) | 59 µM (inactive) | 38 µM (inactive) |  | 19.8 µM (inactive) | 10.8 µM (inactive) | 17.5 µM (inactive) | > 100 µM (inactive) | 29 µM (inactive) | 16.9 µM (inactive) | 12.1 µM (inactive) | 21.2 µM (inactive) | 16.1 µM (inactive) | 84.3 µM (inactive) |  | 58.5 µM (inactive) | 34 µM (inactive) | 2.77 µM (inactive) | 19.2 µM (inactive)
COc1ccc(NC(C)=O)c(C(O)CCNC(C)=O)c1 (configuration not stated) | 31.5 µM (inactive) | > 100 µM (inactive) | > 100 µM (inactive) | > 100 µM (inactive) |  | > 100 µM (inactive) | > 100 µM (inactive) |  | > 100 µM (inactive) | > 100 µM (inactive) | > 100 µM (inactive) | > 100 µM (inactive) | > 100 µM (inactive) | > 100 µM (inactive) | > 100 µM (inactive) | > 100 µM (inactive) | > 100 µM (inactive) | > 100 µM (inactive) | > 100 µM (inactive) | > 100 µM (inactive)
CC(N/N=C(\S)N1CCCCCC1)c1cccnn1 (configuration not stated) | 0.764 µM (active) | 0.392 µM (active) | 0.395 µM (active) | 0.579 µM (active) | 2.45 µM (inactive) |  | 13.2 µM (inactive) | 0.192 µM (active) | 0.618 µM (active) | 0.274 µM (active) | 0.409 µM (active) | 0.192 µM (active) | 0.348 µM (active) | 0.337 µM (active) | 0.194 µM (active) | 1.75 µM (inactive) | 0.706 µM (active) | 0.526 µM (active) | 0.112 µM (active) | 0.132 µM (active)
